Measurements published in patent US4143010A, “High retention wood preservative composition” (Canadian Patents and Development Limited, priority 1978, dated 1979).
In brackets after ≈: the same amount, converted by molar mass. Read-outs that look alike come from different tables or passages of the source.

What was measured:
[1] = Accelerated sublimation test of deposits on glass under vacuum; assay type: physicochemical; conditions: room temperature
Source text: In order to determine the influence of chemical components in the preservative composition on loss of preservative (PCP) under accelerated sublimation conditions, three solutions have been prepared, separately, in carbon tetrachloride as a solvent (in percent w/v).
I. solution: PCP (3.5%) as a preservative.
Ii. solution; PCP (3.5%) and stearic acid (3.5%) as the hydrophobic agent.
III. Solution: PCP (3.5%) stearic acid (3.5%) and polystyrene (0.7%) as the organic polymer.
The same volume of each solution (0.07 ccm/sq.in.) has been poured on the surface of glass template and the solent evaporated at room temperature leaving solid deposits of each sample. Then these deposits of the 3 different preservative compositions (I--II--III), in which the amount of preservative (PCP) was the same, were exposed to vacuum at room temperature in order to accelerate the loss of components. The loss of weight of each single deposit was checked periodically and is expressed in FIG. 1 in percent of original weight of preservative (PCP).

[2] = Hydrophobicity (contact angle of water drops) of treated red pine; assay type: physicochemical; conditions: contact angle 180°
Procedure: The same solutions of preservative compositions (I--II--III), as in Example I have been used for impregnation of red pine wood samples in order to determine the effect on hydrophobicity of wood. After the samples of wood have been fully saturated by solutions I--II--III, the solvent was then evaporated at room temperature during the next 24hours, leaving solid deposits of the components in the wood. Measurements of contact angles of the surface of water drops on pertinent wood samples were made to show the relative hydrophobicity. The sooner the water soaks in the surface of wood (contact angle 180°) the lower the hydrophobicity of wood and vice versa.

[3] = Immobilization of PCP in spruce microsections, vacuum exposure and microscopy; assay type: physicochemical
Source text: From both samples, microsections were cut from the wood tissues, approximately 0.35 -0.37 inch from the surface in the radial direction, i.e. within the area, where the PCP was positively detected by previous staining. Numerous microscopic sections (transverse) were made from both samples (A and B) separately. From each of both groups of microsections, typical sections were again microscopically stained with a Silver-Copper complex (which is the basis of the "Penta-Check") to detect again PCP in the microsections. Other typical unstained microsections were mounted into microscopic slides and without any staining examined microscopically. On the viewed microsections of treated wood typical spots were selected where the cell obviously contained significant deposits of PCP, and photographed, at the same magnification. Photographed microsections from sample A and B were then carefully removed from the slides, gently dried off by a touch of absorbent paper at the corner of the microsections, and transferred into a vacuum desiccator by a micromanipulator. The desiccator was then closed and very slowly evacuated. When the vacuum reached 29.5 inch Hg, the desiccator was sealed and the microsections left for 7 days ([…]). Then the desiccator, still at 27 inch vacuum, was slowly filled with air, opened and the microsections transferred onto glass slides and mounted for microscopic examination. This exposure under the same vacuum conditions (29.5 -27 inch Hg) for 7 days gave accelerated sublimation of PCP. The accelerated vacuum test is considered as an accurate simulation of the effect of ordinary atmosphere for an extended time. The microscopic slides were carefully examined, the same spot of each microsection was found (as photographed before vacuum exposure) and rephotographed (at the same magnification) for comparison.
Two pairs of photomicrographs are shown as FIGS. 1 (a ) and 1 (b ), and as FIGS. 2 (a ) and 2 (b ), being typical of observations of as many as 50 microsections. […]

[4] = test system: Poria monticola; experiment: Effectiveness against decay fungi on spruce sections; assay type: cell-based, Poria monticola (A384); conditions: for Average Percentage of Wood Area Colonized: 19 days at 27° C
Procedure: (§1) The fungicidal activity of these compositions was determined in an accelerated experiment with the wood-rotting basidiomycetes Lenzites trabea (S644), Coniophora puteana (A302) and Poria monticola (A384) as test fungi. Small cross-the-grain sections of spruce wood (Picea glauca, a refractory species) were cut 40 microns thick on a microtome. All treatment specimens (0.5 × 0.5 inch) were cut from the same block of wood and were therefore homogeneous in nature. Wood specimens were treated to different retention levels with the active ingredients D18 or D20 with or without the additives. Two of each treatment series were placed on sterilized glass microscopic cover slips (22 mm^2) which were then deposited upon cultures of actively growing decay fungi in Petri dishes. Cultures were grown on a 2% malt extract, 2% agar medium. Two untreated specimens were included in each culture dish as controls. Treatment series were 0.1, 0.5 and 1.75 pcf. Incubation was for 19 days at 27° C. Each test was done in duplicate. Evaluation of the treated samples was made using a stereoscopic microscope (× 10.5 magnification). The percentage of the surface area of each specimen colonized by the test fungus was determined. The smaller the colonized surface area on each wood specimen, the more efficient the preservative composition used for specimen treatment.

[5] = Leaching resistance test; assay type: physicochemical; conditions: for increase of leaching resistance due to additives: with additives versus without
Procedure: Solution I 5% w/v D-18 in chloroform
Solution II 5% w/v D-20 in chloroform
1.0% w/v polystyrene in chloroform
Solution IV same as III but with 5% w/v D-20.
uptake of preservative was calculated from the weight increase. Chloroform solvent was removed from the samples by air drying followed by drying in the oven at 105° C. for 4 hours. Each sample was leached with a standard volume of distilled water at room temperature. Every two hours the water surrounding each sample was removed for spectrophotometric measurement and was replaced by another standard volume of fresh distilled water. Total leaching time was 140 hours. The concentration of D18 and D20 in the leach water was determined by comparing specific absorbance in UV light with the absorbance of known concentrations of D18 and D20 in water. The leached amount of D18 and D20 was recalculated as a percent of the original amount impregnated into the samples before leaching.

[6] = Test of solubility of oxathiins and additives in various solvents; assay type: physicochemical
Source text: Table 5 is a solubility chart summarizing a list of organic solvents solubilizing oxathiins and the two additives which can be applied in the same solution.

[7] = test system: Lenzites trabea; experiment: Effectiveness against decay fungi on spruce sections; assay type: cell-based, Lenzites trabea (S644); conditions: for Average Percentage of Wood Area Colonized: 19 days at 27° C
Procedure: as §1

[8] = test system: Poria monticola; experiment: Soil-block culture decay test after leaching; assay type: cell-based; conditions: leached samples
Source text: 5% (w/cv) D18 in chloroform and
5% (w/v) D18 with 1.4% wax and 1% polystyrene in chloroform solution.
After solvent removal by slow air drying and a short period of oven drying both series of samples were exposed to leaching in water under the same conditions (time of exposure, temperature and volume of water for leaching). […] After leaching the samples were further tested for toxicity against a wood-decaying fungus in a modified standard method of testing wood preservatives by laboratory soil-block cultures. Five untreated controls and 5 samples from each preservative series were put into soil jars on wooden feeder blocks inoculated with a standard test fungus Poria monticola. […] Jars were located in an incubation room maintained at 80° F. and 70% R.H. and were opened one by one in five consecutive time intervals, after 25 -- 32 -- 39 -- 46 and 65 days incubation. Wood specimens taken from the jars were oven dried and the weight loss due to decay calculated.

[9] = test system: Lenzites trabea; conditions: wood preservative threshold; cited from earlier work
[10] = test system: Coniophora puteana; experiment: Effectiveness against decay fungi on spruce sections; assay type: cell-based, Coniophora puteana (A302); conditions: 19 days at 27° C
Procedure: as §1

[11] = retention 0.1 pcf, * = mycelia extended over the top but did not colonize all substrate underneath
[12] = water, read-out: Solubility in water

SMILES	Average Percentage of Wood Area Colonized [4, 11]	Average Percentage of Wood Area Colonized ([4]; retention 0.5 pcf)	Average Percentage of Wood Area Colonized ([4]; retention 1.75 pcf)	Cumulative Percent Preservative Leached from Wood ([5]; 10 hours of exposure)	Cumulative Percent Preservative Leached from Wood ([5]; 30 hours of exposure)	Cumulative Percent Preservative Leached from Wood ([5]; 70 hours of exposure)	Cumulative Percent Preservative Leached from Wood ([5]; 140 hours of exposure)	increase of leaching resistance due to additives [5]	solubility [6, 12]	Average Percentage of Wood Area Colonized [7, 11]	Average Percentage of Wood Area Colonized ([7]; retention 0.5 pcf)	Average Percentage of Wood Area Colonized ([7]; retention 1.75 pcf)	Average Percentage of Wood Area Colonized ([10]; retention 0.1 pcf)	Average Percentage of Wood Area Colonized ([10]; retention 0.5 pcf)	Average Percentage of Wood Area Colonized ([10]; retention 1.75 pcf)	other results
Oc1c(Cl)c(Cl)c(Cl)c(Cl)c1Cl [PCP, pentachlorophenol]	–	–	–	–	–	–	–	–	–	–	–	–	–	–	–	loss of PCP ([1]; deposit on glass under vacuum, % of original weight of PCP (FIG. 1)): 99%; time for water to soak into wood surface [2]: ≤ 40 s; PCP retention after vacuum exposure ([3]; 164 hours, 29.5-27 inch Hg): had disappeared after vacuum exposure; water repellency of microsections ([3]; microscopic sections): not highly water repellent; distribution of PCP in the cells ([3]; microscopic staining): deposited on the cell walls in individual spots
CC1=C(C(=O)Nc2ccccc2)SCCO1 [Solution D18, 2,3-dihydro-5-carboxanilido-6-methyl-1,4-oxathiin]	40 Percentage	0 Percentage	0 Percentage	14%	27%	43%	56%	51-57%	170 µg/mL (≈ 722 µM)	25 Percentage	0 Percentage	0 Percentage	30 Percentage	5 Percentage	5 Percentage	Cumulative Percent Weight Loss Due to Decay ([8]; 25 days of incubation): 2%; Cumulative Percent Weight Loss Due to Decay ([8]; 32 days of incubation): 4%; Cumulative Percent Weight Loss Due to Decay ([8]; 39 days of incubation): 6%; Cumulative Percent Weight Loss Due to Decay ([8]; 46 days of incubation): 10%; Cumulative Percent Weight Loss Due to Decay ([8]; 65 days of incubation): 21%; known threshold level [9]: 1.1 mg/mL
CC1=C(C(=O)Nc2ccccc2)S(=O)(=O)CCO1 [Solution D20]	50 Percentage	15 Percentage	10 Percentage	10%	38%	54%	61%	17-27%	1000 µg/mL (≈ 3740 µM)	50 Percentage	0 Percentage	0 Percentage	40 Percentage	10 Percentage	10 Percentage	effect of additives on effectiveness [4]: increase in the effectiveness of D20 due to the additives; solubility ([6]; Carbon tetrachloride): - (+); solubility ([6]; Perchloroethylene): - (+); effect of additives on effectiveness [7]: increase in the effectiveness of D20 due to the additives
CCCCCCCCCCCCCCCCCC(=O)O [stearic acid]	–	–	–	–	–	–	–	–	–	–	–	–	–	–	–	reduction of PCP sublimation compared to the control ([1]; vacuum, control = PCP alone): 34%
